Assays:
NCI-H716 cells = assay: GLP-1 secretion by NCI-H716 cells (Examples 2-8); assay type: cell-based, human; settings: NCI-H716 cells, inhibitor 1 hour before oleoyl-LPI (PD98059 50 μM; H89 10 μM)
Experimental: NCI-H716 cells were maintained in 75 cm^2 tissue culture flasks (Corning) in RPMI 1640 media containing 2.0 mM L-glutamine, 1.5 g/L sodium bicarbonate, 10 mM HEPES buffer, 1.0 mM sodium pyruvate, and 4.5 g/L glucose and supplemented with 10% FBS at a 37° C. and 5% CO2. When plating for experiment, cell adhesion and endocrine differentiation were initiated by growing cells in dishes coated with growth factor reduced Matrigel diluted at the ratio of 1:2 (Becton Dickinson, Bedford, MA) in high-glucose DMEM, 10% FBS, 2 mM glutamine, 100 IU/ml penicillin, and 100 μg/ml streptomycin as described previously by De Bruine, a P., Dinjens, W. N., van der Linden, E. P., Pijls, M. M., Moerkerk, P. T., & Bosman, F. T. (1993) The American Journal of Pathology, Vol 142(3), pp 773-782, the disclosure of which is incorporated herein in its entirety by reference.
(§1) Approximately 80,000 Glutag cells were plated in poly-L-lysine-coated 24-well culture plates and grown to about 80% confluence. NCI-H716 cells were seeded on growth factor reduced Matrigel™ (Becton Dickinson, Bedford, MA) in DMEM medium, supplemented with 10% FBS the day before the experiment. For NCI-H716 cells, approximately 25,000 cells were needed for this secretion experiment in order to have good stimulation with lower basal GLP-1 secretion. In brief, Glutag and NCI-H716 cells were washed twice and then incubated for 2 h with FBS-free DMEM containing 1% (M:C) alone (negative control), 10 μM forskolin as positive control (Sigma-Aldrich), or with different concentrations of Oleoyl-LPI. M:C was used as a solvent to prepare stock solutions of fatty acid derivatives and inhibitors. For secretion experiments, medium and cells were collected separately.
(§2) In separate studies, GLUTag or NCI-H716 cells were pre-treated for 1 hour with medium alone (1% DMSO, negative control), PD98059 (50 μM; Sigma Chemical Co.), H89 (10 μM; Santa Cruz) followed by treatment with oleoyl-LPI (20 μM), OEA (10 μM), AR231453(1 μM), PMA (10 μM) or forskolin (10 μM, positive control) in the presence of inhibitors, as appropriate, for about 2 h. Medium GLP-1 secretion was calculated as total GLP-1 content of medium normalised for the basal secretion of the control.
(§3) In order to investigate the role of different LPI species in enteroendocrine cells, murine (Glutag) and human (NCI-H716) L-cells were stimulated with the following different species of LPI: Arachidonyl-LPI, Stearoyl-LPI, Heptadecenoyl-LPI and oleoyl-LPI, as well as with OEA and LPC. Experiments were performed in duplicate, n=4 and the level of total GLP-1 was measured by ELISA.

CREB = CREB phosphorylation by Western blot; assay type: cell-based; settings: H89 10 μM pre-treatment or oleoyl-LPI in control cells
Experimental: When cell cultures reached 80-90%, media were removed and cells were washed twice with 1×PBS. The cells were lysed in 150 μl (for one well of a 6 well plate) of Triton X-100 lysis buffer, containing phosphatase inhibitor cocktail (1:1000) (Sigma Aldrich, UK) and protease inhibitor (1:1000, Sigma Aldrich, UK). Cells were detached with scrapers and lysate were collected and centrifuged at 10,000 rpm, 4° C. for 5 minutes. The supernatant was then transferred to a 1.5 ml microcentrifuge tube and used for protein quantification. Cell lysates were stored at −20° C. for longer storage. All lysates were prepared on ice.
Non-specific antibody binding was prevented by incubating the nitrocellulose membrane in 5% milk in PBS-0.05% Tween-20 (v/v) for 30 minutes on a rotating plate. The membrane was then washed in PBS-0.05% Tween-20 (v/v) and then incubated with the primary antibody diluted in PBS-0.05% Tween-20 (v/v) on a rotating plate overnight at 4° C. After 24 hours, the membrane was washed 5× for 5 minutes with PBS-0.05% Tween-20 (v/v), and then incubated on a rotating plate with the appropriate secondary antibody for 1 hour at room temperature. […]

Glutag cells = assay: GLP-1 secretion by Glutag cells; assay type: cell-based, murine; settings: Glutag cells, inhibitor 1 hour before oleoyl-LPI (PD98059 50 μM; H89 10 μM)
Experimental: Glutag cells were maintained in low glucose DMEM (Sigma) (1 g/L) containing 2.0 mM L-glutamine, 1.0 mM sodium pyruvate and supplemented with 10% FBS, 100 IU/ml penicillin, 100 μg/ml streptomycin at a 37° C. and 5% CO2.
as §1, §2, §3

human GPR119 = molecular target: T1, human GPR119 (Homo sapiens, UniProt Q8TDV5); assay: cAMP assay in GPR119 transfected COS-7 cells; assay type: cell-based; settings: COS-7 cells expressing human GPR119, agonists 30 min; read-out: EC50, production of cAMP
T1 construct: expressed in transfected cells; host or cells: COS-7 cells, calcium phosphate transfection
T1 sequence (Q8TDV5 1-335): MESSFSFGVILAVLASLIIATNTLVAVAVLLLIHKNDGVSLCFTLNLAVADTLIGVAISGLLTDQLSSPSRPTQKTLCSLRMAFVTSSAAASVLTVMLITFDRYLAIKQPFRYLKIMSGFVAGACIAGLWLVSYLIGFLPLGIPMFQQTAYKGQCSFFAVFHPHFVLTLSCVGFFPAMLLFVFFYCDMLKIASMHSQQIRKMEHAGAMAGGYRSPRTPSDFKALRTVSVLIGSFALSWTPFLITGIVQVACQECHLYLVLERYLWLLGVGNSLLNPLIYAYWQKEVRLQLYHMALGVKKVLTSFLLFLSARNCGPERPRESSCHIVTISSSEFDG
Experimental: COS-7 cells were cultured in Dulbecco's modified Eagle medium (DMEM) 1885 supplemented with 10% FBS, […] L-glutamine and 180 IU/ml penicillin+[…] streptomycin (Pen Strep) (Life Technologies, CA, USA) at 37° C. and 10% CO2. The COS-7 cells were transiently transfected with GPR119 or pcDNA by the calcium phosphate transfection method for 5 hours in 37° C., 10% CO2 as described by Kissow H, Hartmann B, Hoist J J, Viby N E, Hansen L S, Rosenkilde M M, Hare K J, Poulsen S S. Regul Pept. 2012. Vol: 179(1-3), pp 91-100; the disclosure of which is incorporated herein in its entirety by way of reference.
COS-7 cells were transfected with about 40 μg GPR119 DNA or pcDNA3 per […] flask. One day after transfection, the cells were seeded out (about 35,000 cell/well) in a 96 well white plate (Perkin Elmer, Massachusetts, USA). The cells were washed twice the following day and incubated for 30 min, at 37° C. with HBS and 1 mM IBMX (Sigma Aldrich, USA). Agonists were added for 30 min in the assay medium. The Hithunter® cAMP XS+ (DiscoveRx, Fremont, USA) was carried out by following the manufacturer's instructions.
Accordingly, the work outlined in this example evaluates whether activation of GPR119 by oleoyl-LPI in enteroendocrine L cell affect the proglucagon gene expression by monitoring the CREB activity. […]

[1] = system: Glutag and NCI-H761 cells; assay: Dose response of GLP-1 release at different glucose concentrations; assay type: cell-based
Experimental: Panels A and B show results of dose response of GLP-1 release in different glucose concentration of 5 mM (panel A) and 10 mM (panel B). The dose response of GLP-1 released was normalised of number of cells measured in parallel. Glutag and […] cells were incubated with vehicle alone, oleoyl-LPI, OEA, LPC forskolin (10 μM) and PMA (1 μM) as positive control for 2 hours. Results were normalised as percentage of cell treated with vehicle (control). For panels A and B data are shown as means±SEM of n=3 from independent experiments performed in duplicates. Student t-test: *p<0.05, **P<0.01. Panel C show results of dose response of GLP-1 release in a glucose concentration of 20 mM.
as §1
To determine the effect of glucose in oleoyl-LPI induced GLP-1 secretion, the inventors conducted dose-response experiment in the presence of 5 mM and 10 mM glucose in the secretion medium with the results outlined in FIG. 2A and FIG. 2B.

[2] = system: colonic cells of the GI tract obtained from guinea pig; assay: Ex vivo GLP-1 biosynthesis and secretion, guinea pig GI tract cells; assay type: cell-based; settings: Cavia porcellus; ex vivo incubation 2 hours, quadruplicates
Experimental: To test for this, a pregnant guinea pig was anesthetized with isoflurane and sacrificed via intra-cardial injection of pentobarbital. Colon and rectum were quickly collected and intraluminal content washed out with ice-cold HBSS. After a thorough cleansing from the faecal material, and gentle scraping of the internal mucosa, the tissue was minced into 3 to 5-millimetre pieces and resuspended into 50 ml of ice cold HBSS. Pellet was spun down and washed again in 50 ml of ice-cold HBSS. Supernatant was carefully removed, and the epithelial fragments were then resuspended for 30 minutes at 37° C. into a 5 ml solution of HEPES 25 mM, collagenase-P 1 mg/ml in HBSS, pH 7.4 at 37° C.
The tissue was then pelleted and resuspended further for about 30 to 40 additional minutes at 37° C. within a 10 ml solution of 1 mg/ml collagenase-P as above.
After the digestion, about 40 ml of pre-warmed DMEM complete media was added (FBS 10%, glucose 4.5 g/L, glutamine 4 mM, sodium pyruvate 1 mM, HEPES 25 mM, sodium bicarbonate 3.7 g/L, Pen/Strep 1× and Ciprofloxacin 10 μg/ml pH 7.4 at 37° C.). Crypts and individual cells were isolated with a […] nylon strainer, spun down at 200 g for 5 minutes, resuspended into 10 ml of DMEM complete media and plated into 20 wells of a 24-well plate coated with a 3D gel of 3 mg/ml Matrigel (BD, Biosciences, Oxford, UK). After one day of incubation at 37° C. 5% CO2 in a humidified incubator, cells were washed with 500 μl of warm HBSS, and treated with 250 μl DMEM serum free (Complete medium without FBS) additioned with KR-62436 10 μg/ml and individually the following drugs or compounds: Forskolin and IBMX (20 μM each), oleoyl-LPI, and the two oleoyl-LPI analogs and/or derivatives ps297b (prepared as described in example 13) and ps316a (prepared as described in example 22) were all tested in quadruplicate at 20 μM.
After a 2-hour long incubation at 37 C 5% CO2, the supernatants were collected on ice, and quickly stored at […]. Active GLP-1 levels (7-37 amide and 7-36) were quantified on 50 μl of supernatant with an ELISA commercial kit (EMD Millipore). DMSO was used as a negative control, the combination of Forskolin and IBMX was included as positive control activators GLP-1. GLP-1 levels measured were standardized against the DMSO control.
The EC50 levels each one of oleoyl-LPI, compound ps297b and compound ps316a were also measured in quadruplicates at the conclusion of the 2 hour incubation. Guinea pig cells obtained as described above were also incubated with […] in quadruplicates and subjected to 2-hour long incubation at 37 C 5% CO2 as described above and EC50 levels measured.

| EC50 (human GPR119) [µM] | EC50 [2] [µM] | Structure (SMILES) | oleoyl-LPI induced GLP-1 secretion with inhibitor pre-treatment (NCI-H716 cells) | phosphorylation of CREB (CREB) | oleoyl-LPI induced GLP-1 secretion with inhibitor pre-treatment (Glutag cells) | GLP-1 secretion ([1]; 5 mM glucose, 50 μM, 2 hours, percentage of vehicle control) [%] | GLP-1 secretion, dose response ([1]; 10 mM glucose) |
| --- | --- | --- | --- | --- | --- | --- | --- |
| – | – | O=S(=O)(NCCNC/C=C/c1ccc(Br)cc1)c1cccc2cnccc12 [H89] | observable reduction in GLP-1 secretion | inhibited | observable reduction in GLP-1 secretion | – | – |
| 0.422 | 30.7 | CCCCCCCC/C=C\CCCCCCCC(=O)NCCO [OEA, Oleoylethanolamide] | – | – | – | 178±15 | dose-dependently stimulate GLP-1 secretion in similar manner of oleoyl-LPI |

Source: US12503426B2, “Synthetic derivatives of oleoyl-lysophosphatidylinositol (oleoyl-LPI) and uses thereof” (LIPOVEXA SRL, priority 2017, dated 2025)
